Patent US10834951B2, “Organic compounds” (GIVAUDAN SA, priority 2013, dated 2020)

Assays:
[1] = Tasting by a professional panel in diluted low salt soy sauce
Experimental: Kikkoman low salt soy sauce was diluted 100 times. Part of the solution was kept as the reference. To another part was dosed a compound of formula (I). The solutions were tasted by a professional panel.
5.a: 0.1 ppm of 5-oxo-1-stearoylpyrrolidine-2-carboxylic acid (C18:0 pyro-Glu) was added to tap water containing 1% salt reduced kikoman soy sauce (9% salt).
5.b: 0.5 ppm of 5-oxo-1-palmitoylpyrrolidine-2-carboxylic acid (C16:0 pyro-Glu) was added to salt reduced kikoman soy sauce (9% salt).

[2] = Tasting in chicken bouillon base (0.7% salt, 0.5% fat)
Experimental: A compound of formula (I) in a concentration as indicated below was added to a chicken bouillon base (0.7% salt, 0.5% fat). The resultant composition was compared with a chicken bouillon without a compound of formula (I).

[3] = Tasting in fried potato snack product with cheese seasoning (35% fat)
Experimental: A snack product consisting of a fried potato base, containing 35% fat and flavored with cheese seasoning containing salt, MSG, dairy, organic acids, sugars, and a flavour formulation. A compound of formula (I) was added to the snack product at the indicated levels and the tasting results are reported as follows (compared with a snack product without a compound of formula (I)): […]

[4] = Expert tasting in mango flavoured still beverage
Experimental: In a Mango flavoured still beverage, sweetened with 8% sucrose & containing 0.1% citric acid and 1% clear mango juice flavoured with proprietary Mango flavour @ 0.05%, C16:0 pyro-Glu and C18:2-Theanine were added, as such (separate) and in combination.
All samples were evaluated by expert tasters. Tasters were asked to describe the samples focusing on authentic taste, juicy mouthfeel, enhancement, richness, juiciness, long lastingness, salivation, sweetness.
*Base: water, 8% sucrose, 0.1% citric acid, 1% clear mango juice (i.e. very low juice concentration), flavoured with Mango flavor (dosed at 0.05%).

[5] = Expert tasting in orange flavoured Tang powdered soft drink
Experimental: In an orange flavoured Tang powdered soft drink (market product) sweetened with sucrose plus high intensity sweetener and containing citric acid, C18:0 pyro-Glu, and C18:2-Theanine were tested.
All samples were evaluated by expert tasters. Tasters were asked to describe the samples focusing on authentic taste, mouthfeel & body, enhancement, richness, juiciness, long lastingness, salivation, sweetness, masking off notes of high intensity sweetener.

[6] = Tasting in brewed green tea against reference
Experimental: A green tea was brewed by taking 0.6 g of tea/100 ml of water. The water was heated to 80° C. and the tea leaves were left in the solution for 5 minutes. The tea solution was allowed to cool down to room temperature. Part of the solution was kept as a reference. To another part was added a compound of formula (I) in a concentration as indicated below. The solutions were tasted against the reference (i.e. a green tea without a compound of formula (I)).

[7] = 0.5 ppm in chicken bouillon base

| SMILES | taste description versus reference ([1]; 0.5 ppm in salt reduced kikoman soy sauce (9% salt)) | taste description versus chicken bouillon without compound [2, 7] | taste description versus snack product without compound ([3]; 0.5 ppm in cheese flavoured fried potato snack) | taste description by expert tasters ([4]; 0.1 ppm in mango still beverage base) | taste description versus reference without the compound ([1]; 0.1 ppm in tap water containing 1% salt reduced kikoman soy sauce (9% salt)) | taste description versus chicken bouillon without compound ([2]; 0.2 ppm in chicken bouillon base) | taste description versus snack product without compound ([3]; 1 ppm in cheese flavoured fried potato snack) | taste description by expert tasters ([5]; 0.1 ppm in orange flavoured Tang base) | taste description versus green tea reference ([6]; 0.2 ppm in green tea) | taste description versus snack product without compound ([3]; 0.1 ppm in cheese flavoured fried potato snack) | taste description by expert tasters ([5]; 1 ppm in orange flavoured Tang base) | taste description by expert tasters ([4]; 1 ppm in mango still beverage base) | taste description versus green tea reference ([6]; 0.02 ppm in green tea) | taste description versus green tea reference ([6]; 1 ppb in green tea) | taste description versus green tea reference ([6]; 10 ppb in green tea) |
| --- | --- | --- | --- | --- | --- | --- | --- | --- | --- | --- | --- | --- | --- | --- | --- |
| CCCCCCCCCCCCCCCC(=O)N1C(=O)CCC1C(=O)O (stereo not shown) [C16:0 pyro-Glu, 5-oxo-1-palmitoylpyrrolidine-2-carboxylic acid] | a stronger saltiness and to be more lingering, more umami | Nice strong salty, umami lingering body, better meat profile | more rich, more cheesy, more umami. More salty | very juicy and long lasting sweet, salivating | – | – | – | – | – | – | – | – | – | – | – |
| CCCCCCCCCCCCCCCCCC(=O)N1C(=O)CCC1C(=O)O (stereo not shown) [C18:0 pyro-Glu, 5-oxo-1-stearoylpyrrolidine-2-carboxylic acid] | – | – | – | – | more body and to be more umami, more salty, longer lasting and richer | More umami lingering body, more salty, more rich | more full, more cheesy, longer lasting, more salty | enhanced fruitiness, enhanced mouthfeel. Additionally, the off-notes of the high intensity sweetener were suppressed | more complex and had more mouthfeel | – | – | – | – | – | – |
| CCCCC/C=C\C/C=C\CCCCCCCC(=O)NC(CCC(=O)NCC)C(=O)O (stereo not shown) [C18:2-Theanine, 5-(ethylamino)-2-[(9Z,12Z)-octadeca-9,12-dienoylamino]-5-oxopentanoic acid] | – | More body and fatty notes, salivating | – | – | – | – | – | – | – | more fatty, more umami, more succulent | enhances sweet juicy orange notes,more body, more mouthfeel. Additionally, the off-notes of the high intensity sweetener were suppressed | fatty skin-like, very juicy, authentic mango, more mouthfeel, long lasting mango taste | better green tea character, was less bitter and had a better mouthfeel | more authentic tea than the reference and to have a nice balance between bitterness and astringency | more astringent, more body and somewhat more bitter umami than the reference |
